These results are taken from patent publication US9540345B2, “Antiviral compounds” (priority 2013, dated 2017).

Where two headings read alike, the source gives them in different places.

The subject of assay [1] is pseudotyped HCV GT1b particles (HCVpp). As to the kind of experiment: microbe, parasite or virus in culture. Type of assay: cell-based, HCV GT1b Con1 strain.
The subject of assay [2] is pseudotyped VSV G particles (VSVpp). As to the kind of experiment: microbe, parasite or virus in culture. Type of assay: cell-based, vesicular stomatitis virus.
The mark [3] stands for this setting: Hepatitis C virus, GT1B, 72 h, read-out: HCVpp GT-1b (EC50, μM).
[4] abbreviates: Vesicular stomatitis virus, 72 h, read-out: VSVpp (EC50, μM).

Regarding `Nc1nc(Nc2cc(Cl)c(-c3ccc(Cl)s3)c(Cl)c2)n[nH]1` [Compound 36, N-3-[3,5-Dichloro-4-(5-chloro-thiophen-2-yl)-phenyl]-1H-[1,2,4]triazole-3,5-diamine], the figures for the EC50 in assay [1] (setting [3]) and in assay [2] (setting [4]) were 0.558 µM and 11.9 µM, respectively.
The matching figures for `COc1cccc(-c2c(Cl)cc(Nc3n[nH]c(N)n3)cc2Cl)n1` [Compound 44, N-3-[3,5-Dichloro-4-(6-methoxy-pyridin-2-yl)-phenyl]-1H-[1,2,4]triazole-3,5-diamine]: 1.16 µM and 7.8 µM.
On to `Nc1nc(Nc2cc(Cl)c(-c3cncnc3)c(Cl)c2)n[nH]1` [Compound 39, N-3-(3,5-Dichloro-4-pyrimidin-5-yl-phenyl)-1H-[1,2,4]triazole-3,5-diamine], for which the EC50 (usually the concentration at which the effect is half-maximal) is 0.536 µM in assay [1] (setting [3]) and 5.1 µM in assay [2] (setting [4]).
With `Nc1nc(Nc2cc(Cl)c(-c3ccncc3)c(Cl)c2)n[nH]1` [Compound 35, N-3-(3,5-Dichloro-4-(pyridin-4-yl)phenyl)-1H-1,2,4-triazole-3,5-diamine], the EC50 in assay [1] (setting [3]) worked out at 0.338 µM; in assay [2] (setting [4]), 2.5 µM.
The matching figures for `COc1ccc(-c2c(Cl)cc(Nc3n[nH]c(N)n3)cc2Cl)cn1` [Compound 1, N*3*-[3,5-Dichloro-4-(6-methoxy-pyridin-3-yl)-phenyl]-1H-[1,2,4]triazole-3,5-diamine]: 0.767 µM and 3.7 µM.
Regarding `Nc1nc(Nc2cc(Cl)c(-c3cc[nH]c(=O)c3)c(Cl)c2)n[nH]1` [Compound 7, 4-[4-(5-Amino-1H-[1,2,4]triazol-3-ylamino)-2,6-dichloro-phenyl]-1H-pyridin-2-one], the EC50 in assay [1] (setting [3]) was 0.809 µM; in assay [2] (setting [4]), at least 10 µM.
The like results for `Nc1ccc(-c2c(Cl)cc(Nc3n[nH]c(N)n3)cc2Cl)cn1` [Compound 4, N*3*-[4-(6-Amino-pyridin-3-yl)-3,5-dichloro-phenyl]-1H-[1,2,4]triazole-3,5-diamine] were, in that order, 0.173 µM and 1.4 µM.
“tert-Butyl 4-(4-(5-amino-1H-1,2,4-triazol-3-ylamino)-2-chloro-6-(trifluoromethyl)phenyl)-5,6-dihydropyridine-1(2H)-carboxylate [Compound 20]”: the half-maximal effective concentration (EC50) in assay [1] (read-out: HCVpp GT-1b (EC50)) amounted to 0.073 µM; in assay [2] (read-out: VSVpp (EC50)), 13.6 µM.
